Measurements as given in the NIST ThermoML archive (doi:10.1016/j.tca.2016.03.002).

Experiments:
[1] = relative permittivity at various frequencies (dimensionless); xn = mol fraction of the nth substance listed; conditions: 100 kPa, Liquid, Frequency=30 MHz, Parallel plate capacitor
[2] = refractive index (Na D-line) (dimensionless); xn = mol fraction of the nth substance listed; conditions: 100 kPa, Liquid, Standard Abbe refractometry

NC1CCCCC1 [cyclohexylamine] + CO
Conditions | refractive index, [2] | relative permittivity, [1]
293.15 K, x2 = 0 | 1.45934 | 4.65
293.15 K, x2 = 0.0702 | 1.45717 | 5.34
293.15 K, x2 = 0.1177 | 1.45561 | 5.88
293.15 K, x2 = 0.2006 | 1.45245 | 7.01
293.15 K, x2 = 0.3049 | 1.44774 | 8.78
293.15 K, x2 = 0.4041 | 1.44199 | 10.87
293.15 K, x2 = 0.4986 | 1.43478 | 13.26
293.15 K, x2 = 0.5392 | 1.43072 | 14.55
293.15 K, x2 = 0.597 | 1.42424 | 16.28
293.15 K, x2 = 0.6609 | 1.41597 | 18.6
293.15 K, x2 = 0.6986 | – | 19.95
293.15 K, x2 = 0.7024 | 1.40945 | –
293.15 K, x2 = 0.746 | – | 21.72
293.15 K, x2 = 0.7997 | – | 23.89
293.15 K, x2 = 0.7999 | 1.39047 | –
293.15 K, x2 = 0.8572 | 1.37655 | 26.33
293.15 K, x2 = 0.8985 | 1.36493 | 28.32
293.15 K, x2 = 0.9032 | 1.36365 | –
293.15 K, x2 = 0.949 | 1.34836 | 30.74
298.15 K, x2 = 0 | 1.45663 | 4.56
298.15 K, x2 = 0.0702 | 1.45462 | 5.23
298.15 K, x2 = 0.1177 | 1.45309 | 5.75
298.15 K, x2 = 0.2006 | 1.45014 | 6.84
298.15 K, x2 = 0.3049 | 1.44542 | 8.55
298.15 K, x2 = 0.4041 | 1.43954 | 10.58
298.15 K, x2 = 0.4986 | 1.43243 | 12.88
298.15 K, x2 = 0.5392 | 1.42852 | 14.1
298.15 K, x2 = 0.597 | 1.42256 | 15.73
298.15 K, x2 = 0.6609 | 1.41393 | 18.05
298.15 K, x2 = 0.6986 | – | 19.34
298.15 K, x2 = 0.7024 | 1.40787 | –
298.15 K, x2 = 0.746 | – | 21.14
298.15 K, x2 = 0.7997 | – | 23.16
298.15 K, x2 = 0.7999 | 1.38877 | –
298.15 K, x2 = 0.8535 | 1.3759 | –
298.15 K, x2 = 0.8572 | 1.37494 | 25.55
298.15 K, x2 = 0.8985 | 1.36313 | 27.5
298.15 K, x2 = 0.949 | 1.34625 | 29.87
303.15 K, x2 = 0 | 1.45325 | 4.47
303.15 K, x2 = 0.0702 | 1.45212 | 5.13
303.15 K, x2 = 0.1177 | 1.45064 | 5.63
303.15 K, x2 = 0.2006 | 1.44761 | 6.68
303.15 K, x2 = 0.3049 | 1.4431 | 8.32
303.15 K, x2 = 0.4041 | 1.43715 | 10.29
303.15 K, x2 = 0.4986 | 1.42999 | 12.47
303.15 K, x2 = 0.5392 | 1.42613 | 13.66
303.15 K, x2 = 0.597 | 1.42012 | 15.28
303.15 K, x2 = 0.6609 | 1.41198 | 17.5
303.15 K, x2 = 0.6986 | – | 18.73
303.15 K, x2 = 0.7024 | 1.40569 | –
303.15 K, x2 = 0.746 | 1.39807 | 20.47
303.15 K, x2 = 0.7997 | – | 22.46
303.15 K, x2 = 0.7999 | 1.38677 | –
303.15 K, x2 = 0.8535 | – | 24.61
303.15 K, x2 = 0.8572 | 1.37247 | –
303.15 K, x2 = 0.8985 | – | 26.7
303.15 K, x2 = 0.9032 | 1.35944 | –
303.15 K, x2 = 0.949 | 1.3444 | 28.96
